Literature values, collected in patent publication US20100068280A1, “SUSTAINED RELEASE PHARMACEUTICAL DOSAGE FORM CONTAINING PHENYLEPHRINE” (priority 2006, published 2010).

Conditions: in vivo

CN1CCC(=C2c3ccccc3CCc3cccnc32)CC1 [Azatadine]
elimination half-life: 9 to 12 h
